Here are results for 18 compounds from ChEMBL document CHEMBL1201862, “PubChem BioAssay data set” (2004).

Active and inactive are the calls of the source.

The nature of assay [1]: Luminescence Cell-Based Dose Confirmation HTS to Identify Activators of 5'UTR Stem-Loop Driven Alpha-Synuclein mRNA Translation in H4 Neuroglioblastoma Cells. [Related pubchem assays: 1829 (Project Summary), 1814 (Primary HTS)]. It counts as functional.
For the next assay, the system named is H4. Put plainly: Luminescence Cell-Based Dose Response HTS to Identify Activators of 5'UTR Stem-Loop Driven Prion Protein mRNA Translation in H4 Neuroglioblastoma Cells. [Related pubchem assays: 1829 (Project Summary), 1814 (Primary HTS)]. It counts as functional. As to conditions: Homo sapiens.
Assay [2] in a line: Luminescence Cell-Based Dose Response to Identify Activators of Luciferase Translation or Activity in H4-C Neuroglioblastoma Cells. [Related pubchem assays: 1829 (Project Summary), 1814 (Primary HTS)]. It counts as functional.
The nature of assay [3]: Luminescence Cell-Based Dose Response to Identify Activators of 5'UTR Stem-Loop Driven Prion Protein mRNA Translation in H4-C Neuroglioblastoma Cells. [Related pubchem assays: 1829 (Project Summary), 1814 (Primary HTS)]. It counts as functional.
Assay [4] is described as follows: Luminescence Cell-Based Dose Confirmation to Identify Activators of 5'UTR Stem-Loop Driven Alpha-Synuclein mRNA Translation in H4 Neuroglioblastoma Cells. [Related pubchem assays: 1829 (Project Summary), 1814 (Primary HTS)]. It is filed as functional.
Assay [5] in a line: Jurkat T cell cytotoxicity, dose response, cytotoxicity control for P. falciparum gametocyte viability project, luminescence (AID 1117277).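 Also: potency reflects loss of cellular ATP meaning fewer viable cells.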 It is filed as functional, cell-based.
A short description of assay [6]: P. falciparum late gametocyte killing, dose response, luminescence (AID 1117278).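 Also: gametocytes exposed to compound for 24 hours.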 It counts as functional, cell-based.
Assay [7] deals with T1, Calpain-2 catalytic subunit (Sus scrofa, UniProt P43367).
T1 sequence (P43367 whole entry): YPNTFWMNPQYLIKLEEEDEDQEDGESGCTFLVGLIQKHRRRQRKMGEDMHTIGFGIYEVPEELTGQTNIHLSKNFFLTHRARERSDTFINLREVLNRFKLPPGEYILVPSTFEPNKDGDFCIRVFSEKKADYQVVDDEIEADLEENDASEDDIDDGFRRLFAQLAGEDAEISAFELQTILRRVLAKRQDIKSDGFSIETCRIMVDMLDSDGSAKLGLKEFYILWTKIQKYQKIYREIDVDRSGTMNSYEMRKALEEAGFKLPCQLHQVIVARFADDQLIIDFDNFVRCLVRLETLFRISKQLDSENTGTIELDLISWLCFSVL
Put plainly: pig calpain II inhibitor potency, dose response, biochemical, fluorogenic peptide substrate (AID 1420). It is filed as functional.

Another assay concerns the target Prothrombin (Homo sapiens, UniProt P00734). Nature of the assay: Thrombin 1536 HTS Dose Response Confirmation. [Related pubchem assays: 1046 (Thrombin 1536 HTS; hits were confirmed in this assay)]. It is filed as functional.
A further assay deals with Nonstructural protein 1 (Influenza A virus, UniProt Q194T2). It is filed as functional, Influenza A virus (A/California/07/2009(H1N1)).
Assay [8] in a line: Luminescence Cell-Based Dose Response HTS to Identify Activators of Luciferase Translation or Activity in H4 […] Cells. [Related pubchem assays: 1829 (Project Summary), 1814 (Primary HTS)]. It is filed as functional.
Another assay is described as follows: cells. It counts as functional.
The target of assay [9] is T2, Carboxy-terminal domain RNA polymerase II polypeptide A small phosphatase 1 (Homo sapiens, UniProt Q9GZU7).
T2 sequence (Q9GZU7 whole entry): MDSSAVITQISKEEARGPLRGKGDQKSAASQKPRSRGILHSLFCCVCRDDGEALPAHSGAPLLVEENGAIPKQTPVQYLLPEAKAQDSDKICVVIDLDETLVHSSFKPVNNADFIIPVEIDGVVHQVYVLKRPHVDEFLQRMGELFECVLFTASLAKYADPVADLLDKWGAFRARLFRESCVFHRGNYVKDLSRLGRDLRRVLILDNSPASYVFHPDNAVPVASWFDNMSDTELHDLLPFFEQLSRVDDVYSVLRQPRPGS
Nature of the assay: inhibitors of CTDSP1, concentration-response testing, biochemical assay, absorbance-based, actives from ultra-high-throughput screening (AID 540297). It is filed as functional.

The target of a further assay is T3, Caspase-6 (Homo sapiens, UniProt P55212).
T3 sequence (P55212 whole entry): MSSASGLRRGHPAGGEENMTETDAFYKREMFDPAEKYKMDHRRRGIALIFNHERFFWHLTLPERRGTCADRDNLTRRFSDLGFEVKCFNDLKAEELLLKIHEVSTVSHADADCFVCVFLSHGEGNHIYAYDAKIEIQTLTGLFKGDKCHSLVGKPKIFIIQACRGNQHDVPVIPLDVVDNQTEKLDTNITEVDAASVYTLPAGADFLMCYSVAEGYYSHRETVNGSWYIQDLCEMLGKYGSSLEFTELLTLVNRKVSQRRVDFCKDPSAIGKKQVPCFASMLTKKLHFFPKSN
Put plainly: human caspase-6 inhibitors, dose response, biochemical, VEID-R110 fluorescence, cherry-pick (AID 720632).

Another assay has as its target Albumin (Bos taurus, UniProt P02769). Nature of the assay: Counterscreen for inhibitors of T-cell receptor (TCR)-CD3 interaction: Fluorescence-based biochemical high throughput dose response assay to identify inhibitors of T-cell receptor (TCR)-CD3 interaction using a TAMRA-labeled BSA probe. It counts as functional.
Assay [10] in a line: P. falciparum Dd2 growth inhibitors, dose response, SYBR Green, dry powder samples, set 9 (AID 1159568). It counts as functional, cell-based.

Albumin, sequence (P02769 whole entry): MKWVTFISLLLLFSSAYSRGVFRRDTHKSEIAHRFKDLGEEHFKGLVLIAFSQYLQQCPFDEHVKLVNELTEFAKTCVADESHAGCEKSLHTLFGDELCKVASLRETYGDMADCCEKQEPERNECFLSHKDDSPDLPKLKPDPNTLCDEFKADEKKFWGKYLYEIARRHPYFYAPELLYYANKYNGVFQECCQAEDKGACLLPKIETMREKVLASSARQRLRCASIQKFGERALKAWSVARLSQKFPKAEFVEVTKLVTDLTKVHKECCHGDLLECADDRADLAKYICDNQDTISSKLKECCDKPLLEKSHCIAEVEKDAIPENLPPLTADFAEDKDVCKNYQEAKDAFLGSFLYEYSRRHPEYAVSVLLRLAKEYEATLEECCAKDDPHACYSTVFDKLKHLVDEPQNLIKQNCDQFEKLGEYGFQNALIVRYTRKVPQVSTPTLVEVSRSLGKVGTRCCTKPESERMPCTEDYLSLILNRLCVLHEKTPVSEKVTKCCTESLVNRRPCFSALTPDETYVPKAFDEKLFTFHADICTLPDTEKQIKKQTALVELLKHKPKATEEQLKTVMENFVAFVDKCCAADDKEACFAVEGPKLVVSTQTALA
Nonstructural protein 1, sequence (Q194T2 whole entry): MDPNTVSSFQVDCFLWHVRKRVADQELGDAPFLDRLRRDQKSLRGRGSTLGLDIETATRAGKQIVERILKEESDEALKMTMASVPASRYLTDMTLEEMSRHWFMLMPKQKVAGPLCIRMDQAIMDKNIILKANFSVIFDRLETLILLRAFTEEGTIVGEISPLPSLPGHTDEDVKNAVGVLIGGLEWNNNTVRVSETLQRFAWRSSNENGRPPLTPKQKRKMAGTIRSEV

With `Cc1ccnc(SCc2nc3ccccc3s2)n1`, the concentration giving a half-maximal response (EC50) in assay [1] is < 0.1 µM (active); in the assay on H4, 6.54 µM (active); in assay [2], > 12 µM (not active); in [3], 3.21 µM (active); in assay [4] it was > 12 µM (inconclusive).
For `CC1CCCCC12NC(=O)N(CC(=O)NCCc1ccccn1)C2=O` (centres undefined), the IC50 in assay [5] is > 83.3 µM (inactive); in [6], > 109 µM (inactive).
On to `Cc1ccc(NC(=O)c2cc(N3C(=O)C4CCCCC4C3=O)ccc2N2CCOCC2)cc1` (centres undefined), for which, in [7], the half-inhibitory concentration (IC50) was 14.9 µM (not active).
Turning to `Cc1sc2c(c1C)c(=O)n(-c1ccc(F)cc1)c(=O)n2CC(=O)NCc1ccco1`, in assay [7], the 50% inhibitory concentration (IC50) is on record as 25.1 µM (not active).
With `CC1(C)CC(=O)C(Sc2nnc(-c3ccc(O)cc3)n2CC2CCCO2)C(=O)C1` (centres undefined), the IC50 in assay [5] was > 83.3 µM (inactive); in assay [6], > 109 µM (inactive).
As to `CCC(=O)n1nc(-c2ccccc2)nc1SCC(=O)Nc1ccc(C)cc1`, on Prothrombin, the IC50 was 1.22 µM (active).
`O=C(Nc1nc(-c2cccs2)cs1)c1ccc(Cl)cc1`: the IC50 on Prothrombin is 4.5 µM (active).
With `Cc1ccc(C)c(N=Nc2nc3ccccc3n2C)c1`, at Nonstructural protein 1, the 50% inhibitory concentration (IC50) was 14.3 µM (active). The EC50 in the assay with H4 was < 0.1 µM (active); in [2] it was 0.281 µM (active); in [8] it was 0.139 µM (inconclusive); in assay [3], 0.275 µM (active); in [4], 0.393 µM (active).
For the compound `COc1ccc(-c2cc(C(=O)NCc3cn(C)nc3C)c3ccccc3n2)cc1OC`, the half-maximal inhibitory concentration (IC50) in assay [7] was > 50 µM (not active).
In the case of `COc1ccccc1-c1ccc(NC2CCCCC2)nn1`, the EC50 in assay [1] was 0.6 µM (active); with H4, < 0.1 µM (active); in assay [2] it was > 12 µM (not active); in assay [8], 52.7 µM (active); in assay [3], 1.68 µM (active); in assay [4], 0.442 µM (active).
Turning to `O=C(Nc1ncc(Cc2ccccc2)s1)C1=NCCN1`, the IC50 was > 83.3 µM (inactive) in [5], > 109 µM (inactive) in [6] and 14 µM (active) in the assay “cells”.
As for `O=C(COC(=O)c1cccnc1)Nc1ccc(F)cc1`, the IC50 is > 83.3 µM (inactive) in assay [5] and > 109 µM (inactive) in assay [6].
As for `O=C(O)c1cnc2c([N+](=O)[O-])cccc2c1O`, the values for the half-inhibitory concentration (IC50) (in [9]; at Albumin) were 5.65 µM (active) and > 94 µM (inactive), respectively. In addition, on Caspase-6, the AC50 was 5.77 µM (active).
As to `O=C(Nc1cc(F)ccc1F)N1CCCCN2[C@H](CO)[C@H](c3ccc(C4=CCCCC4)cc3)[C@@H]2C1`, in assay [10], the AC50 was 12.2 µM (active).
Take `COc1cccc(S(=O)(=O)N2CCCCN3[C@H](CO)[C@H](c4ccc(C#CCC(C)C)cc4)[C@H]3C2)c1`: the AC50 in assay [10] is 2.41 µM (active).
Same read-out and setting: as for `C[C@@H]1CCCCO[C@@H](CN(C)S(=O)(=O)c2ccccc2)[C@H](C)CN([C@H](C)CO)C(=O)c2cc(NC(=O)Nc3ccc4c(c3)OCO4)ccc2O1`, the figure is 1.17 µM (active); as for `N#C[C@H]1[C@@H](c2ccc(C3=CCCCC3)cc2)[C@@H](CO)N1C(=O)Nc1ccccc1F`, 15.8 µM (active).
As to `COc1cccc(NC(=O)c2ccc(NCCCN3CC(C)CC(C)C3)c([N+](=O)[O-])c2)c1` (centres undefined), the concentration for half-maximal inhibition (IC50) in assay [7] is 3.92 µM (not active).
